{
  "source": "ChEMBL document CHEMBL4196029",
  "about": "“New MD2 inhibitors derived from curcumin with improved anti-inflammatory activity” (Eur J Med Chem, 2018)",
  "key": {"Rattus norvegicus [1]": {"tested_on": "Rattus norvegicus", "test": "Anti-inflammatory activity in Sprague-Dawley rat model of LPS-induced acute lung injury assessed as reduction in TNFalpha level in serum at 20 mg/kg, po administered daily for 1 week followed by LPS addition at 30 mins post last dose measured after 6 hrs by ELISA", "format": "functional, organism-based"}, "Rattus norvegicus [2]": {"tested_on": "Rattus norvegicus", "test": "Anti-inflammatory activity in Sprague-Dawley rat model of LPS-induced acute lung injury assessed as reduction in IL-1beta mRNA level in lungs at 20 mg/kg, po administered daily for 1 week followed by LPS addition at 30 mins post last dose measured after 6 hrs by qRT-PCR method", "format": "functional, organism-based"}, "Rattus norvegicus [3]": {"tested_on": "Rattus norvegicus", "test": "Anti-inflammatory activity in Sprague-Dawley rat model of LPS-induced acute lung injury assessed as reduction in VCAM1 mRNA level in lungs at 20 mg/kg, po administered daily for 1 week followed by LPS addition at 30 mins post last dose measured after 6 hrs by qRT-PCR method", "format": "functional, organism-based"}, "Peritoneal macrophage [4]": {"tested_on": "Peritoneal macrophage", "test": "Inhibition of LPS-induced COX2 mRNA expression in C57BL/6 mouse primary peritoneal macrophages at 10 uM preincubated for 30 mins followed by LPS addition measured after 24 hrs by qRT-PCR analysis", "format": "functional, cell-based"}, "[5]": {"molecular_target": "T1, Inhibitor of nuclear factor kappa-B kinase subunit beta (Homo sapiens) (UniProt O14920)", "T1 sequence (whole entry)": "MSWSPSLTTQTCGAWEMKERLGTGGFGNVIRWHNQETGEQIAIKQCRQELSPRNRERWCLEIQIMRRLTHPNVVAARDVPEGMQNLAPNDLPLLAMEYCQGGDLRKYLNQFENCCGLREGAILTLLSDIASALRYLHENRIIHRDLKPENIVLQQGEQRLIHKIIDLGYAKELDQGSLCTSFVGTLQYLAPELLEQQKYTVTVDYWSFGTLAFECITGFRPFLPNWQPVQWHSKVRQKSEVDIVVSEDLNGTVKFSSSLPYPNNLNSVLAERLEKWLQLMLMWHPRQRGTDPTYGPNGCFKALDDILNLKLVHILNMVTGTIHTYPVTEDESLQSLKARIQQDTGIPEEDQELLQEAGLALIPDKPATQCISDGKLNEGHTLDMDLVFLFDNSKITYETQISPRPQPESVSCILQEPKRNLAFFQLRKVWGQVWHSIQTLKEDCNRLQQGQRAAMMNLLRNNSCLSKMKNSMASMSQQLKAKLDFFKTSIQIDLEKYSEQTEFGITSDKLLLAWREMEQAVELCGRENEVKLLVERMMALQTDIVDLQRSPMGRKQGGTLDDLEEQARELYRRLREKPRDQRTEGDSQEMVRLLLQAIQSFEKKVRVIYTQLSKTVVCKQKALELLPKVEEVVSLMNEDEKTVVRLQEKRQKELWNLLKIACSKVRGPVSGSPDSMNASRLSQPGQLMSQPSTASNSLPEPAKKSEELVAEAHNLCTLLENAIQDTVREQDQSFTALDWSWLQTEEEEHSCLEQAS", "test": "Inhibition of recombinant human N-terminal His-tagged IKKbeta (1 to 662 residues) expressed in baculovirus expression system at 0.1 uM after 1 hr by caliper mobility shift assay relative to control"}, "[6]": {"molecular_target": "Interleukin-1 receptor-associated kinase 1 (Homo sapiens) (UniProt P51617)", "sequence (P51617 whole entry, looked up, the tested form may be a part)": "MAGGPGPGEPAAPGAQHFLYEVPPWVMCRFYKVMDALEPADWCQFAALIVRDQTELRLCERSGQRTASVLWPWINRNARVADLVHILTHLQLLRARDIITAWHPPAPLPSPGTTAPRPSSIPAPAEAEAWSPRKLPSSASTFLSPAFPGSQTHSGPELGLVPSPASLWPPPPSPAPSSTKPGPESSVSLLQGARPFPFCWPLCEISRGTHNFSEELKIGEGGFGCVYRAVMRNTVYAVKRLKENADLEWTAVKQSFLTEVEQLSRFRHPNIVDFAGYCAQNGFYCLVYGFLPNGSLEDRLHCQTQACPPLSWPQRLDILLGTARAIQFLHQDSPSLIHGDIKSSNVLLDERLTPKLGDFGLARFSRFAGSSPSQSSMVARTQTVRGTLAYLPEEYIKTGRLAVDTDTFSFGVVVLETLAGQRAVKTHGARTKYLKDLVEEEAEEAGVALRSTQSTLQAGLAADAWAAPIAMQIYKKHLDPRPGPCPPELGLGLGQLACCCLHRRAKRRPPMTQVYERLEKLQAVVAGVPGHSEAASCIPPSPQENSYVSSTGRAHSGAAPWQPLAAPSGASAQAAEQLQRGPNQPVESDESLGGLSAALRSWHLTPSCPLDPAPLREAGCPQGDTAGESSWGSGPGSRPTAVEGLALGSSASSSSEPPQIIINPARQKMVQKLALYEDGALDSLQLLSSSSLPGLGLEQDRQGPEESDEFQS", "test": "Inhibition of recombinant human N-terminal GST-tagged IRAK1 (194 to 712 residues) expressed in baculovirus expression system at 10 uM after 1 hr by caliper mobility shift assay relative to control"}, "Peritoneal macrophage [7]": {"tested_on": "Peritoneal macrophage", "test": "Anti-inflammatory activity in C57BL/6 mouse primary peritoneal macrophages assessed as inhibition of LPS-induced IL-6 secretion at 1 uM preincubated for 30 mins followed by LPS addition measured after 24 hrs by ELISA relative to control", "format": "functional", "details": "C57BL/6, Peritoneal macrophage"}, "RAW264.7": {"tested_on": "RAW264.7", "test": "Inhibition of MD2 in […] cells harboring NF-kB-luc assessed as inhibition of LPS-induced TLR4 activation-mediated NF-kB transcriptional activity at 2.5 uM preincubated with cells followed by LPS addition measured after 6 hrs by luciferase reporter gene assay", "format": "cell-based"}, "Rattus norvegicus [8]": {"tested_on": "Rattus norvegicus", "test": "Anti-inflammatory activity in Sprague-Dawley rat model of LPS-induced acute lung injury assessed as reduction in pulmonary edema at 20 mg/kg, po administered daily for 1 week followed by LPS addition at 30 mins post last dose measured after 6 hrs", "format": "functional, organism-based"}, "[9]": {"molecular_target": "Mitogen-activated protein kinase 1 (Homo sapiens) (UniProt P28482)", "sequence (P28482 whole entry)": "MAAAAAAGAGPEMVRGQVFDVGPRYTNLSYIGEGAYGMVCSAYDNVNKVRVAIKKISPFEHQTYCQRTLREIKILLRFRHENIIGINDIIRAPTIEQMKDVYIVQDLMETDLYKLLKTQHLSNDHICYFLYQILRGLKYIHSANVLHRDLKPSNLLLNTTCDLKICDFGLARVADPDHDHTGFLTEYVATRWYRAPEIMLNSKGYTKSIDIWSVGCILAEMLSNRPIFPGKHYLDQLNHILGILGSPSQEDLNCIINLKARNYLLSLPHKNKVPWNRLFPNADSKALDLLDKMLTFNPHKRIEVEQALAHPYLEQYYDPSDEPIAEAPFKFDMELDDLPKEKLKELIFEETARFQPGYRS", "test": "Inhibition of recombinant human full length N-terminal GST-tagged ERK2 (1 to 360 end residues) expressed in Escherichia coli at 0.1 uM after 1 hr by caliper mobility shift assay relative to control"}, "Rattus norvegicus [10]": {"tested_on": "Rattus norvegicus", "test": "Anti-inflammatory activity in Sprague-Dawley rat model of LPS-induced acute lung injury assessed as reduction in ICAM1 mRNA level in lungs at 20 mg/kg, po administered daily for 1 week followed by LPS addition at 30 mins post last dose measured after 6 hrs by qRT-PCR method", "format": "functional, organism-based"}, "[11]": {"molecular_target": "T1, Inhibitor of nuclear factor kappa-B kinase subunit beta (Homo sapiens)", "test": "Inhibition of recombinant human N-terminal His-tagged IKKbeta (1 to 662 residues) expressed in baculovirus expression system at 10 uM after 1 hr by caliper mobility shift assay relative to control"}, "Rattus norvegicus [12]": {"tested_on": "Rattus norvegicus", "test": "Anti-inflammatory activity in Sprague-Dawley rat model of LPS-induced acute lung injury assessed as reduction in TNFalpha level in BALF at 20 mg/kg, po administered daily for 1 week followed by LPS addition at 30 mins post last dose measured after 6 hrs by ELISA", "format": "functional, organism-based"}, "Peritoneal macrophage [13]": {"tested_on": "Peritoneal macrophage", "test": "Anti-inflammatory activity in C57BL/6 mouse primary peritoneal macrophages assessed as inhibition of LPS-induced IL-6 secretion at 2.5 uM preincubated for 30 mins followed by LPS addition measured after 24 hrs by ELISA relative to control", "format": "functional", "details": "C57BL/6, Peritoneal macrophage"}, "Rattus norvegicus [14]": {"tested_on": "Rattus norvegicus", "test": "Anti-inflammatory activity in Sprague-Dawley rat model of LPS-induced acute lung injury assessed as reduction in MCP1 mRNA level in lungs at 20 mg/kg, po administered daily for 1 week followed by LPS addition at 30 mins post last dose measured after 6 hrs by qRT-PCR method", "format": "functional, organism-based"}},
  "note": "Calls of active or inactive are those of the source. The calls are words filed in the database; no cut-off is given here.",
  "data": [
    {"smiles": "COc1cc(/C=C2\\CN(C)C/C(=C\\c3cc(OC)c(OC)c(OC)c3)C2=O)cc(OC)c1OC", "values": [
      {"measurement": "Activity", "setting": "Rattus norvegicus [1]", "result": "Active"},
      {"measurement": "Activity", "setting": "Rattus norvegicus [2]", "result": "Active"},
      {"measurement": "Activity", "setting": "Rattus norvegicus [3]", "result": "Active"},
      {"measurement": "inhibition", "setting": "Peritoneal macrophage [4]", "result": "Active"},
      {"measurement": "inhibition", "setting": "[5]", "result": 21.1, "unit": "%"},
      {"measurement": "inhibition", "setting": "[6]", "result": 0.5, "unit": "%"},
      {"measurement": "inhibition at 1 µM", "setting": "Peritoneal macrophage [7]", "result": "> 90", "unit": "%"},
      {"measurement": "inhibition", "setting": "RAW264.7", "result": "Active"},
      {"measurement": "Activity", "setting": "Rattus norvegicus [8]", "result": "Active"},
      {"measurement": "inhibition", "setting": "[9]", "result": 11.7, "unit": "%"},
      {"measurement": "Activity", "setting": "Rattus norvegicus [10]", "result": "Active"},
      {"measurement": "inhibition", "setting": "[11]", "result": 12.8, "unit": "%"},
      {"measurement": "Activity", "setting": "Rattus norvegicus [12]", "result": "Active"},
      {"measurement": "inhibition at 2.5 µM", "setting": "Peritoneal macrophage [13]", "result": "> 50", "unit": "%"},
      {"measurement": "Activity", "setting": "Rattus norvegicus [14]", "result": "Active"}
    ]},
    {"smiles": "COc1cc(/C=C2\\COC/C(=C\\c3cc(OC)c(OC)c(OC)c3)C2=O)cc(OC)c1OC", "values": [
      {"measurement": "inhibition", "setting": "Peritoneal macrophage [4]", "result": "Active"},
      {"measurement": "inhibition", "setting": "[5]", "result": 15.7, "unit": "%"},
      {"measurement": "inhibition", "setting": "[6]", "result": 3.6, "unit": "%"},
      {"measurement": "inhibition at 1 µM", "setting": "Peritoneal macrophage [7]", "result": "> 90", "unit": "%"},
      {"measurement": "inhibition", "setting": "RAW264.7", "result": "Active"},
      {"measurement": "Activity", "setting": "Rattus norvegicus [8]", "result": "Active"},
      {"measurement": "inhibition", "setting": "[9]", "result": 21.3, "unit": "%"},
      {"measurement": "inhibition", "setting": "[11]", "result": 7.9, "unit": "%"},
      {"measurement": "inhibition at 2.5 µM", "setting": "Peritoneal macrophage [13]", "result": "> 50", "unit": "%"},
      {"measurement": "Activity", "setting": "Rattus norvegicus [14]", "result": "Active"}
    ]}
  ]
}
